Measurements: patent US9255090B2, “Heterocyclyl derivatives and their use as prostaglandin D2 receptor modulators” (Actelion Pharmaceuticals Ltd., priority 2012, dated 2016)
pIC50: −log10 of the molar value.

What follows are compounds tested against hCRTH2 receptor (Homo sapiens (Human), UniProt Q9Y5Y4) (assay: hCRTH2 receptor membranes radioligand (3H-PGD2) displacement assay). Conditions: 3H-PGD2 radioligand displacement, HEK293-hCRTH2 membranes.
Format: binding
Procedure, shortened: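 Compound was first mixed with buffer, then 3H-PGD2 was added at 2.5 nM, and the reaction was started with hCRTH2 membranes from HEK293 cells at 20 μg/well. After 90 min at room temperature, mixtures were filtered and washed with ice-cold buffer, and retained radioactivity was counted.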

hCRTH2 receptor, sequence (Q9Y5Y4 whole entry): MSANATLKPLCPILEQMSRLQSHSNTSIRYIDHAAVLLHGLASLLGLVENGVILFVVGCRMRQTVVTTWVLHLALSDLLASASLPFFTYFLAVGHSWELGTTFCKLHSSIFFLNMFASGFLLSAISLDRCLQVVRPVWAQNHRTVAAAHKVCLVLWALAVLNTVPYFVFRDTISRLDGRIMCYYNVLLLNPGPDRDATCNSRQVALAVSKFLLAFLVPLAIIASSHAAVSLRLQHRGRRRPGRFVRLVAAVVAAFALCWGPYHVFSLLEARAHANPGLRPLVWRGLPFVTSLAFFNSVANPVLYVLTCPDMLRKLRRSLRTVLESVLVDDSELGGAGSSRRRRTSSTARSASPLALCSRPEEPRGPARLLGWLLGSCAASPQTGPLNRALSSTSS

SMILES	pIC50
CC(C)Oc1ccc(OCC(=O)O)cc1-c1ccc(F)c2c1CN(C(=O)[C@@H]1C[C@H]1c1ccccc1)CC2 [Example 161, {3-[5-Fluoro-2-((1R,2R)-2-phenyl-cyclopropanecarbonyl)-1,2,3,4-tetrahydro-isoquinolin-8-yl]-4-isopropoxy-phenoxy}-acetic acid]	8.86
O=C(O)Cc1cc2c(c(-c3ccc(F)c4c3CN(C(=O)OCc3ccccc3)CC4)c1)OCO2 [Example 167, 8-(6-Carboxymethyl-benzo[1,3]dioxol-4-yl)-5-fluoro-3,4-dihydro-1H-isoquinoline-2-carboxylic acid benzyl ester]	7.81
COc1ccc(CC(=O)O)cc1-c1cccc2c1CN(C(=O)OCc1ccccc1)CC2 [Example 170, 8-(5-Carboxymethyl-2-methoxy-phenyl)-3,4-dihydro-1H-isoquinoline-2-carboxylic acid benzyl ester]	6.96
O=C(O)CCCOc1ccc(F)cc1-c1cccc2c1CN(C(=O)OCc1ccccc1)CC2 [Example 174, 8-[2-(3-Carboxy-propoxy)-5-fluoro-phenyl]-3,4-dihydro-1H-isoquinoline-2-carboxylic acid benzyl ester]	6.54
COc1cc(CC(=O)O)ccc1-c1ccc(F)c2c1CN(C(=O)[C@@H]1C[C@H]1c1ccccc1)CC2 [Example 184, {4-[5-Fluoro-2-((1R,2R)-2-phenyl-cyclopropanecarbonyl)-1,2,3,4-tetrahydro-isoquinolin-8-yl]-3-methoxy-phenyl}-acetic acid]	9.05
COc1cc(CC(=O)O)ccc1-c1ccc(F)c2c1CN(C(=O)CCc1c(C)[nH]c3ccccc13)CC2 [Example 186, (4-{5-Fluoro-2-[3-(2-methyl-1H-indol-3-yl)-propionyl]-1,2,3,4-tetrahydro-isoquinolin-8-yl}-3-methoxy-phenyl)-acetic acid]	8.58
COc1cc(CC(=O)O)ccc1-c1ccc(F)c2c1CN(C(=O)CCn1ncc3cc(F)ccc31)CC2 [Example 190, (4-{5-Fluoro-2-[3-(5-fluoro-indazol-1-yl)-propionyl]-1,2,3,4-tetrahydro-isoquinolin-8-yl}-3-methoxy-phenyl)-acetic acid]	8.14
COc1cc(CC(=O)O)ccc1-c1ccc(F)c2c1CN(C(=O)CCN1CCc3ccccc31)CC2 [Example 191, {4-[2-(3-2,3-Dihydro-indol-1-yl-propionyl)-5-fluoro-1,2,3,4-tetrahydro-isoquinolin-8-yl]-3-methoxy-phenyl}-acetic acid]	8.62
COc1cc(CC(=O)O)ccc1-c1ccc(F)c2c1CN(C(=O)CCOc1ccc(F)cc1)CC2 [Example 192, (4-{5-Fluoro-2-[3-(4-fluoro-phenoxy)-propionyl]-1,2,3,4-tetrahydro-isoquinolin-8-yl}-3-methoxy-phenyl)-acetic acid]	9.16
CCOc1ccc(CC(=O)O)cc1-c1ccc(F)c2c1CN(C(=O)CC(C)c1ccc(F)cc1)CC2 (stereo not shown) [Example 212, (4-Ethoxy-3-{5-fluoro-2-[3-(4-fluoro-phenyl)-butyryl]-1,2,3,4-tetrahydro-isoquinolin-8-yl}-phenyl)-acetic acid]	7.94
CCOc1ccc(CC(=O)O)cc1-c1ccc(F)c2c1CN(C(=O)C(C)Cc1ccccc1)CC2 (stereo not shown) [Example 213]	6.95

Second part, the compound after the results:

pIC50	SMILES
7.17	COc1ccc(CC(=O)O)cc1-c1ccc(C(F)(F)F)c2c1CN(C(=O)OCc1ccccc1)CC2 [Example 158, 8-(5-Carboxymethyl-2-methoxy-phenyl)-5-trifluoromethyl-3,4-dihydro-1H-isoquinoline-2-carboxylic acid benzyl ester]
6.23	COc1ccc(CC(=O)O)cc1-c1ccc(F)c2c1CCN(C(=O)OCc1ccccc1)C2 [Example 159, 5-(5-Carboxymethyl-2-methoxy-phenyl)-8-fluoro-3,4-dihydro-1H-isoquinoline-2-carboxylic acid benzyl ester]
9.17	O=C(O)COc1ccc(OC(F)(F)F)c(-c2ccc(F)c3c2CN(C(=O)[C@@H]2C[C@H]2c2ccccc2)CC3)c1 [Example 160, {3-[5-Fluoro-2-((1R,2R)-2-phenyl-cyclopropanecarbonyl)-1,2,3,4-tetrahydro-isoquinolin-8-yl]-4-trifluoromethoxy-phenoxy}-acetic acid]
7.33	O=C(O)Cc1ccc(-c2ccc(F)c3c2CN(C(=O)OCc2ccccc2)CC3)c(F)c1 [Example 164, 8-(4-Carboxymethyl-2-fluoro-phenyl)-5-fluoro-3,4-dihydro-1H-isoquinoline-2-carboxylic acid benzyl ester]
7.58	O=C(O)Cc1ccc(-c2ccc(F)c3c2CN(C(=O)OCc2ccccc2)CC3)c(Cl)c1 [Example 165, 8-(4-Carboxymethyl-2-chloro-phenyl)-5-fluoro-3,4-dihydro-1H-isoquinoline-2-carboxylic acid benzyl ester]
6.68	O=C(O)COc1ccc(-c2ccc(F)c3c2CN(C(=O)OCc2ccccc2)CC3)cc1 [Example 172, 8-(4-Carboxymethoxy-phenyl)-5-fluoro-3,4-dihydro-1H-isoquinoline-2-carboxylic acid benzyl ester]
7.04	O=C(O)COc1ccc(F)cc1-c1cccc2c1CN(C(=O)OCc1ccccc1)CC2 [Example 173, 8-(2-Carboxymethoxy-5-fluoro-phenyl)-3,4-dihydro-1H-isoquinoline-2-carboxylic acid benzyl ester]
6.93	O=C(O)COc1cccc(-c2ccc(F)c3c2CN(C(=O)OCc2ccccc2)CC3)c1 [Example 175, 8-(3-Carboxymethoxy-phenyl)-5-fluoro-3,4-dihydro-1H-isoquinoline-2-carboxylic acid benzyl ester]
7.87	O=C(O)COc1ccc(Cl)c(-c2ccc(F)c3c2CN(C(=O)OCc2ccccc2)CC3)c1 [Example 176, 8-(5-Carboxymethoxy-2-chloro-phenyl)-5-fluoro-3,4-dihydro-1H-isoquinoline-2-carboxylic acid benzyl ester]
7.76	O=C(O)COc1ccc(Cl)c(-c2ccc(Cl)c3c2CN(C(=O)OCc2ccccc2)CC3)c1 [Example 178, 8-(5-Carboxymethoxy-2-chloro-phenyl)-5-chloro-3,4-dihydro-1H-isoquinoline-2-carboxylic acid benzyl ester]
6.60	Cc1ccc(-c2cc(OCC(=O)O)ccc2Cl)c2c1CCN(C(=O)OCc1ccccc1)C2 [Example 179, 8-(5-Carboxymethoxy-2-chloro-phenyl)-5-methyl-3,4-dihydro-1H-isoquinoline-2-carboxylic acid benzyl ester]
6.68	O=C(O)COc1ccc(Cl)c(-c2ccc(C(F)(F)F)c3c2CN(C(=O)OCc2ccccc2)CC3)c1 [Example 180, 8-(5-Carboxymethoxy-2-chloro-phenyl)-5-trifluoromethyl-3,4-dihydro-1H-isoquinoline-2-carboxylic acid benzyl ester]
6.91	O=C(O)COc1ccc(Cl)c(-c2cccc3c2CN(C(=O)OCc2ccccc2)CC3)c1 [Example 181, 8-(5-Carboxymethoxy-2-chloro-phenyl)-3,4-dihydro-1H-isoquinoline-2-carboxylic acid benzyl ester]
6.75	COc1cc(OC(C)C(=O)O)ccc1-c1ccc(F)c2c1CN(C(=O)OCc1ccccc1)CC2 (stereo not shown) [Example 202, 8-[4-(1-Carboxy-ethoxy)-2-methoxy-phenyl]-5-fluoro-3,4-dihydro-1H-isoquinoline-2-carboxylic acid benzyl ester]
